Measured values: publication PMC6591251, “Discovery of potent necroptosis inhibitors targeting RIPK1 kinase activity for the treatment of inflammatory disorder and cancer metastasis” (Cell Death & Disease, 2019)

What was measured:
Assay in all cases: RBC kinase panel
Type in all cases: biochemical
Conditions in all cases: ATP 10 μM, Data1, Data2
AKT2 = biological target: T1, AKT2 (Homo sapiens, UniProt P31751)
T1 construct: purchased Reaction Biology Corporation
How it was run: (§1)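 Each of the 369 panel kinases (human) received the compound at 1 μM; reactions used 10 μM ATP and were set up in duplicate.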

ALK6/BMPR1B = biological target: T2, ALK6/BMPR1B (Homo sapiens, UniProt O00238)
T2 construct: purchased Reaction Biology Corporation
T2 sequence (O00238 14-502): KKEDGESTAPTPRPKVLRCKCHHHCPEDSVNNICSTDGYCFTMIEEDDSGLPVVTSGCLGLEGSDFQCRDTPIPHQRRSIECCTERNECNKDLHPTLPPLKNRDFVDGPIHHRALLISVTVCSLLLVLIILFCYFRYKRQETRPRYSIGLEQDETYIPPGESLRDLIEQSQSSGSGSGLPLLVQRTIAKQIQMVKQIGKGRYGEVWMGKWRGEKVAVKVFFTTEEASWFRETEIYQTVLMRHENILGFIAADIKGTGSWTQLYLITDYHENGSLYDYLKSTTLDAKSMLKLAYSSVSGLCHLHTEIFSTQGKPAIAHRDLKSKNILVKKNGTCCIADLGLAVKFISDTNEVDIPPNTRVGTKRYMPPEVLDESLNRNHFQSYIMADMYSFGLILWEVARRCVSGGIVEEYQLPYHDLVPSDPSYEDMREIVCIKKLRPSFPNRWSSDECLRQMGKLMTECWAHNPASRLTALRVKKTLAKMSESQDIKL
How it was run: as §1

ARK5/NUAK1 = biological target: T3, ARK5/NUAK1 (Homo sapiens, UniProt O60285)
T3 construct: purchased Reaction Biology Corporation
How it was run: as §1

ASK1/MAP3K5 = biological target: T4, ASK1/MAP3K5 (Homo sapiens, UniProt Q99683)
T4 construct: purchased Reaction Biology Corporation
How it was run: as §1

CDK1/cyclin E = biological target: T5, CDK1/cyclin E (Homo sapiens, UniProt P06493)
T5 construct: purchased Reaction Biology Corporation
How it was run: as §1

CDK4/cyclin D3 = biological target: T6, CDK4/cyclin D3 (Homo sapiens, UniProt P11802)
T6 construct: purchased Reaction Biology Corporation
How it was run: as §1

CK1g1 = biological target: T7, CK1g1 (Homo sapiens, UniProt Q9HCP0)
T7 construct: purchased Reaction Biology Corporation
How it was run: as §1

COT1/MAP3K8 = biological target: T8, COT1/MAP3K8 (Homo sapiens, UniProt P41279)
T8 construct: purchased Reaction Biology Corporation
How it was run: as §1

DDR1 = biological target: T9, DDR1 (Homo sapiens, UniProt Q08345)
T9 construct: purchased Reaction Biology Corporation
How it was run: as §1

EPHB1 = biological target: T10, EPHB1 (Homo sapiens, UniProt P54762)
T10 construct: purchased Reaction Biology Corporation
T10 sequence (P54762 18-984): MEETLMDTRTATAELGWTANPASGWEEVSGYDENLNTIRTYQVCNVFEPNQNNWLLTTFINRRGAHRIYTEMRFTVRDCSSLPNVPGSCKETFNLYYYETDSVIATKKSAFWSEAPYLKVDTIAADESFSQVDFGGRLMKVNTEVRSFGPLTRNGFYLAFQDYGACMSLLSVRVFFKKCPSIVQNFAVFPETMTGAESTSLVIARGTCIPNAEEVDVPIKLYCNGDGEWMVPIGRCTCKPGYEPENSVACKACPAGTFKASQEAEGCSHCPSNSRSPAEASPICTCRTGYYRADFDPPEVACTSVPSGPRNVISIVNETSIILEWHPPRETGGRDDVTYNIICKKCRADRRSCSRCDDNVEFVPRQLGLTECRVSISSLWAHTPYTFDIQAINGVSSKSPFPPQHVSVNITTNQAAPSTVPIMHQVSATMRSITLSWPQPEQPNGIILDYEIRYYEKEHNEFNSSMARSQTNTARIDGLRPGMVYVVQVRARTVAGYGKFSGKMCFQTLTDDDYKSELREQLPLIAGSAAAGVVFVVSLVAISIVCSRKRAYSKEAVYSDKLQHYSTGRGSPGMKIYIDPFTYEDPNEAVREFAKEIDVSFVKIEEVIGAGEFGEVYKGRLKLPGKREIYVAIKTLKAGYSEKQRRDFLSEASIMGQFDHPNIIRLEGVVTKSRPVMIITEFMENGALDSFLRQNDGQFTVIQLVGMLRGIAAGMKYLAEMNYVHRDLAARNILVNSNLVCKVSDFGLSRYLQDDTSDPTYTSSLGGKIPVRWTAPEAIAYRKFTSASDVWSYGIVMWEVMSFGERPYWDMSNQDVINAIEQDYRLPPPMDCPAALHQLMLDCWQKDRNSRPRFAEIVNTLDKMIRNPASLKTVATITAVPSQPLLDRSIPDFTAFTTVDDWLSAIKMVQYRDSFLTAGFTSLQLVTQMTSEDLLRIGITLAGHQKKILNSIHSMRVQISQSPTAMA
How it was run: as §1

FGR = biological target: T11, FGR (Homo sapiens, UniProt P09769)
T11 construct: purchased Reaction Biology Corporation
How it was run: as §1

IKKa/CHUK = biological target: T12, IKKa/CHUK (Homo sapiens, UniProt O15111)
T12 construct: purchased Reaction Biology Corporation
How it was run: as §1

IRAK4 = biological target: T13, IRAK4 (Homo sapiens, UniProt Q9NWZ3)
T13 construct: purchased Reaction Biology Corporation
T13 sequence (Q9NWZ3 whole entry): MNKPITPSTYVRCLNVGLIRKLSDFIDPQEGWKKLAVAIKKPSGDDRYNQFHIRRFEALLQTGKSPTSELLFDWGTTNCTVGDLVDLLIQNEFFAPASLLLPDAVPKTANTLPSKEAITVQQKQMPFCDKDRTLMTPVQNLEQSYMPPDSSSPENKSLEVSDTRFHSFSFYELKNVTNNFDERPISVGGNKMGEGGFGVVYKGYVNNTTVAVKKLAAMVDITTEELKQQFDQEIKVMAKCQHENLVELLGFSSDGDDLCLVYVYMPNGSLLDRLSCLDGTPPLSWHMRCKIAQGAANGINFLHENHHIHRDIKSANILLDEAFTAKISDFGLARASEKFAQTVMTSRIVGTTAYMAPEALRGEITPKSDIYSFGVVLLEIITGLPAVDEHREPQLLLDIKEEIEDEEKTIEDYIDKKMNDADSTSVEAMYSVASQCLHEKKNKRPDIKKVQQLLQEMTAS
How it was run: as §1

MAK = biological target: T14, MAK (Homo sapiens, UniProt P20794)
T14 construct: purchased Reaction Biology Corporation
How it was run: as §1

MAPKAPK2 = biological target: T15, MAPKAPK2 (Homo sapiens, UniProt P49137)
T15 construct: purchased Reaction Biology Corporation
How it was run: as §1

MARK3 = biological target: T16, MARK3 (Homo sapiens, UniProt P27448)
T16 construct: purchased Reaction Biology Corporation
How it was run: as §1

MSK1/RPS6KA5 = biological target: T17, MSK1/RPS6KA5 (Homo sapiens, UniProt O75582)
T17 construct: purchased Reaction Biology Corporation
How it was run: as §1

MST3/STK24 = biological target: T18, MST3/STK24 (Homo sapiens, UniProt Q9Y6E0)
T18 construct: purchased Reaction Biology Corporation
T18 sequence (Q9Y6E0 whole entry): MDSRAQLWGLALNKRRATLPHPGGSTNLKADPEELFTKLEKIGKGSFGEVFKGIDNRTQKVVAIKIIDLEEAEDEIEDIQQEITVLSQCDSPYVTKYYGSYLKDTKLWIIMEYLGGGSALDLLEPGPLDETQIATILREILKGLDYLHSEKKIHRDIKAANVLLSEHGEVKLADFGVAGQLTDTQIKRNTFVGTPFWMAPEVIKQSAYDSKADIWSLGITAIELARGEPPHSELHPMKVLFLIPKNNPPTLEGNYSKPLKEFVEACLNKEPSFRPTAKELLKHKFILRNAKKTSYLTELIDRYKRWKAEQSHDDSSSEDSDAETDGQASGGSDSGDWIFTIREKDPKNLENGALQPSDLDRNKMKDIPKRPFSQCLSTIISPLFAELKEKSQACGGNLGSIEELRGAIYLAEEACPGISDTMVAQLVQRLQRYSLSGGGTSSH
How it was run: as §1

NIM1 = biological target: T19, NIM1 (Homo sapiens, UniProt Q8IY84)
T19 construct: purchased Reaction Biology Corporation
How it was run: as §1

OSR1/OXSR1 = biological target: T20, OSR1/OXSR1 (Homo sapiens, UniProt O95747)
T20 construct: purchased Reaction Biology Corporation
How it was run: as §1

PHKg1 = biological target: T21, PHKg1 (Homo sapiens, UniProt Q16816)
T21 construct: purchased Reaction Biology Corporation
T21 sequence (Q16816 whole entry): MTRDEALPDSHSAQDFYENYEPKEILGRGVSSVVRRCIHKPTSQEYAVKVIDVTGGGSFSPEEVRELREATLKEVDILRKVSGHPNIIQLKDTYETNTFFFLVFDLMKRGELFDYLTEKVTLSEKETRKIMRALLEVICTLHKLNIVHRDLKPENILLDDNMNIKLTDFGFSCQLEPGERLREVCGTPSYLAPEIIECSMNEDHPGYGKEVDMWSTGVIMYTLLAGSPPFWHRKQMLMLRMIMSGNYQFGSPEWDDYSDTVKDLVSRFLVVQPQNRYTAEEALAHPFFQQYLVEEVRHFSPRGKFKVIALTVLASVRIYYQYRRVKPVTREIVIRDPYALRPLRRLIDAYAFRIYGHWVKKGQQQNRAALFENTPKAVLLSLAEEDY
How it was run: as §1

PKCg = biological target: T22, PKCg (Homo sapiens, UniProt P05129)
T22 construct: purchased Reaction Biology Corporation
How it was run: as §1

PKN2/PRK2 = biological target: T23, PKN2/PRK2 (Homo sapiens, UniProt Q16513)
T23 construct: purchased Reaction Biology Corporation
T23 sequence (Q16513 whole entry): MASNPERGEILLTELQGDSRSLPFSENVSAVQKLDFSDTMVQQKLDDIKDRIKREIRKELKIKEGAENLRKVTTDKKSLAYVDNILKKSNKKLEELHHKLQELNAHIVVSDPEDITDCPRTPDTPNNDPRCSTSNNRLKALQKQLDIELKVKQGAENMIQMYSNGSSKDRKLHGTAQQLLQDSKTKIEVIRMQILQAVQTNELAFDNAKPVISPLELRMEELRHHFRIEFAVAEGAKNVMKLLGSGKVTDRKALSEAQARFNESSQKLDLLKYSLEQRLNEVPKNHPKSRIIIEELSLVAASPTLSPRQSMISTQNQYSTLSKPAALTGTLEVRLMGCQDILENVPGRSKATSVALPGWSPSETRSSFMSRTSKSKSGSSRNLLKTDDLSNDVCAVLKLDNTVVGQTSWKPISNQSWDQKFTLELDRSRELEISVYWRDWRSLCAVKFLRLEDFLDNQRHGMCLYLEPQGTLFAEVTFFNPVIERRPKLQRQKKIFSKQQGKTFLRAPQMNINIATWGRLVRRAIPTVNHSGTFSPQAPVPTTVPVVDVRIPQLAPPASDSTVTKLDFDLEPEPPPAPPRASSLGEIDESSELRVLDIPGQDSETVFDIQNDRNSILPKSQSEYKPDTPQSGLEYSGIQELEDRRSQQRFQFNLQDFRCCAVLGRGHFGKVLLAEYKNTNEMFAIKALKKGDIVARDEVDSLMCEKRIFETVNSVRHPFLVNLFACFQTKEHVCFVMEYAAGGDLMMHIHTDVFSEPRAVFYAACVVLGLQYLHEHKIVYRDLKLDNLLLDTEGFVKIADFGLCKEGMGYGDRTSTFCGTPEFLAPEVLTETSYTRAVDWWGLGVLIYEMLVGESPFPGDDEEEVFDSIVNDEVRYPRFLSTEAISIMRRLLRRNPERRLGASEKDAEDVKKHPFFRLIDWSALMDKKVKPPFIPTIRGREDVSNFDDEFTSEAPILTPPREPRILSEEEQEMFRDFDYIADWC
How it was run: as §1

PYK2 = biological target: T24, PYK2 (Homo sapiens, UniProt Q14289)
T24 construct: purchased Reaction Biology Corporation
How it was run: as §1

RIPK3 = biological target: T25, RIPK3 (Homo sapiens, UniProt Q9Y572)
T25 construct: purchased Reaction Biology Corporation
How it was run: as §1

SGK2 = biological target: T26, SGK2 (Homo sapiens, UniProt Q9HBY8)
T26 construct: purchased Reaction Biology Corporation
T26 sequence (Q9HBY8 whole entry): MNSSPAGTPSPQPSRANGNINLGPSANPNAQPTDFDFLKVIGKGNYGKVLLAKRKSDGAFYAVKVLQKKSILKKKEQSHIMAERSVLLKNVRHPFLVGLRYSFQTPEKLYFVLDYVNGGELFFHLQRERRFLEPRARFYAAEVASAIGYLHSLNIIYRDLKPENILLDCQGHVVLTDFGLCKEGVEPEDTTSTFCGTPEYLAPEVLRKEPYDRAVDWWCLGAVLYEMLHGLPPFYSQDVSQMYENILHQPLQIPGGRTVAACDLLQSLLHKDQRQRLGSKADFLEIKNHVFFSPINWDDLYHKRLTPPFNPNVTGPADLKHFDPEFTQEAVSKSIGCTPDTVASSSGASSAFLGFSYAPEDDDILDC
How it was run: as §1

SNARK/NUAK2 = biological target: T27, SNARK/NUAK2 (Homo sapiens, UniProt Q9H093)
T27 construct: purchased Reaction Biology Corporation
T27 sequence (Q9H093 whole entry): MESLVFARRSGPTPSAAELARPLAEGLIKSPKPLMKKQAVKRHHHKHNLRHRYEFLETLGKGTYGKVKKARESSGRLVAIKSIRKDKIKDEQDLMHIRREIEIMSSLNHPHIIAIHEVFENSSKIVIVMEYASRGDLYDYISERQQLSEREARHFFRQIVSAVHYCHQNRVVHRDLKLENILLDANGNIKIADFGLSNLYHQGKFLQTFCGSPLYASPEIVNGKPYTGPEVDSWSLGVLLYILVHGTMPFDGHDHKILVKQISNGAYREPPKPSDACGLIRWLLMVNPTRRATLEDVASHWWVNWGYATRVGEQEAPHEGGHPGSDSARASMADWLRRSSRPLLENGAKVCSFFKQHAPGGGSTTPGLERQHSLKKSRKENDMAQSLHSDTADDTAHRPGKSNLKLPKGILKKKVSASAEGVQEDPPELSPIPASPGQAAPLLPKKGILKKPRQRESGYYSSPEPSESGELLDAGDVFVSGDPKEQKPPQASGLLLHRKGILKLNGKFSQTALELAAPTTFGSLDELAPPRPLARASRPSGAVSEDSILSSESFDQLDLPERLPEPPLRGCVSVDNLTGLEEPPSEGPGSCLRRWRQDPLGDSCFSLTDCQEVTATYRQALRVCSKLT
How it was run: as §1

SNRK = biological target: T28, SNRK (Homo sapiens, UniProt Q9NRH2)
T28 construct: purchased Reaction Biology Corporation
How it was run: as §1

STK38L/NDR2 = biological target: T29, STK38L/NDR2 (Homo sapiens, UniProt Q9Y2H1)
T29 construct: purchased Reaction Biology Corporation
How it was run: as §1

TAOK1 = biological target: T30, TAOK1 (Homo sapiens, UniProt Q7L7X3)
T30 construct: purchased Reaction Biology Corporation
How it was run: as §1

TESK2 = biological target: T31, TESK2 (Homo sapiens, UniProt Q96S53)
T31 construct: purchased Reaction Biology Corporation
How it was run: as §1

TIE2/TEK = biological target: T32, TIE2/TEK (Homo sapiens, UniProt Q02763)
T32 construct: purchased Reaction Biology Corporation
How it was run: as §1

c-Src = biological target: T33, c-Src (Homo sapiens, UniProt P12931)
T33 construct: purchased Reaction Biology Corporation
How it was run: as §1

CC(=O)Nc1nc2ccc(-c3cnc(C)c(NC(=O)OC4CCCCC4)c3)cc2s1 [PK68, cyclohexyl (5-(2-acetamidobenzo[d]thiazol-6-yl)-2-methylpyridin-3-yl)carbamate]
Activity% (AKT2; 1 μM): 96.89% | activity at 1 µM (AKT2): 97.5% | Activity% (ALK6/BMPR1B; 1 μM): 91.83% | activity at 1 µM (ALK6/BMPR1B): 92.5% | Activity% (ARK5/NUAK1; 1 μM): 98.37% | activity at 1 µM (ARK5/NUAK1): 99.4% | Activity% (ASK1/MAP3K5; 1 μM): 93.46% | activity at 1 µM (ASK1/MAP3K5): 95.2% | Activity% (CDK1/cyclin E; 1 μM): 101.92% | activity at 1 µM (CDK1/cyclin E): 102% | Activity% (CDK4/cyclin D3; 1 μM): 93.75% | activity at 1 µM (CDK4/cyclin D3): 94.2% | Activity% (CK1g1; 1 μM): 89.50% | activity at 1 µM (CK1g1): 90.7% | Activity% (COT1/MAP3K8; 1 μM): 94.93% | activity at 1 µM (COT1/MAP3K8): 95.2% | Activity% (DDR1; 1 μM): 80.91% | activity at 1 µM (DDR1): 81.7% | Activity% (EPHB1; 1 μM): 95.01% | activity at 1 µM (EPHB1): 95.5% | Activity% (FGR; 1 μM): 82.32% | activity at 1 µM (FGR): 87.2% | Activity% (IKKa/CHUK; 1 μM): 107.86% | activity at 1 µM (IKKa/CHUK): 117% | Activity% (IRAK4; 1 μM): 85.85% | activity at 1 µM (IRAK4): 86.9% | Activity% (MAK; 1 μM): 96.81% | activity at 1 µM (MAK): 97% | Activity% (MAPKAPK2; 1 μM): 100.37% | activity at 1 µM (MAPKAPK2): 101% | Activity% (MARK3; 1 μM): 103.78% | activity at 1 µM (MARK3): 104% | Activity% (MSK1/RPS6KA5; 1 μM): 93.86% | activity at 1 µM (MSK1/RPS6KA5): 94% | Activity% (MST3/STK24; 1 μM): 100.31% | activity at 1 µM (MST3/STK24): 102% | Activity% (NIM1; 1 μM): 96.79% | activity at 1 µM (NIM1): 97.5% | Activity% (OSR1/OXSR1; 1 μM): 102.40% | activity at 1 µM (OSR1/OXSR1): 105% | Activity% (PHKg1; 1 μM): 93.46% | activity at 1 µM (PHKg1): 93.6% | Activity% (PKCg; 1 μM): 95.02% | activity at 1 µM (PKCg): 95.8% | Activity% (PKN2/PRK2; 1 μM): 62.44% | activity at 1 µM (PKN2/PRK2): 62.6% | Activity% (PYK2; 1 μM): 95.64% | activity at 1 µM (PYK2): 95.9% | Activity% (RIPK3; 1 μM): 104.99% | activity at 1 µM (RIPK3): 106% | Activity% (SGK2; 1 μM): 99.97% | activity at 1 µM (SGK2): 101% | Activity% (SNARK/NUAK2; 1 μM): 97.10% | activity at 1 µM (SNARK/NUAK2): 98.7% | Activity% (SNRK; 1 μM): 90.23% | activity at 1 µM (SNRK): 94.9% | Activity% (STK38L/NDR2; 1 μM): 100.42% | activity at 1 µM (STK38L/NDR2): 101% | Activity% (TAOK1; 1 μM): 79.31% | activity at 1 µM (TAOK1): 79.8% | Activity% (TESK2; 1 μM): 92.21% | activity at 1 µM (TESK2): 94.3% | Activity% (TIE2/TEK; 1 μM): 82.66% | activity at 1 µM (TIE2/TEK): 83.4% | Activity% (c-Src; 1 μM): 95.17% | activity at 1 µM (c-Src): 96.3%
